Reference: patent US11452731B2, “Method of treating and preventing loss of cognition” (ENDORECHERCHE, INC., priority 2009, dated 2022)
Values joined by “and” are separate entries in the source; they are usually repeats but may differ in a detail not shown here. Identical values can stand only once. Marks after values point to notes of the source that are not given here.

Key:
[1] = parameters: species or system Long-Evans rats; details: rat, in vivo
Excerpt: For comparison purposes, values for the blood, plasma, liver (Table 13) and uterus from each of these animals were included.

[2] = 12-month treatment of ovariectomized rats with DHEA alone or with Flutamide or EM-800: bone histomorphometry, bone markers, serum lipids; assay type: in vivo, rat; details: added to DHEA, OVX rats, 12 months
[3] = Uterine, vaginal and body weight in estrone-supplemented OVX nude mice (Example 1); assay type: in vivo; details: E1-supplemented
Description: DHEA was dissolved in 50% ethanol 50% propylene glycol. […] Tumors were measured once a week with Vernier calipers.

[4] = 12-week oral EM-800 (0.5 mg/kg) in intact rats: serum 17β-estradiol, mammary gland and endometrium histology; assay type: in vivo, rat; details: 12 weeks
Description: The lobules (L) consist of a few alveoli. Insert. High magnification showing alveoli. • b) Animal treated with EM-800 (0.5 mg/kg, b w per day) for 12 weeks. […] Insert. High magnification showing atrophied alveolar cells.
The luminal epithelium (LE) is characterized by columnar epithelial cells while the glandular epithelium (GE) is rather cuboidal. The stroma contains several cellular elements and collagen fibers. • b) Animal treated with EM-800 (0.5 mg/kg, b w per day) during 12 weeks. […] The glandular epithelial cells have unstained cytophasm with no sign of activity. The stroma is highly cellular due to reduction in intercellular elements of the stroma.

[5] = tested on: ZR-75-1 human breast cancer xenografts; test: Growth and response of human ZR-75-1 breast tumor xenografts in estrone-supplemented OVX nude mice, DHEA and/or EM-800 for 9.5 months (Example 1); assay type: in vivo; details: 9.5 months; for Category of response: Complete (%) / Category of response: Complete (Number) / Category of response: Partial (%) / Category of response: Partial (Number) / Category of response: Progression (%) / Category of response: Progression (Number) / Category of response: Stable (%) / Category of response: Stable (Number) / Average tumor weight at end of experiment: E1-supplemented
[6] = 9-month treatment with DHEA and/or EM-800 in the rat: urinary and serum markers of bone metabolism; assay type: in vivo
Excerpt: It is particularly important to indicate that the combination of DHEA and EM-800 exerted unexpected beneficial effects on important biochemical parameters of bone metabolism. […] Moreover, no effect of DHEA could be detected on daily urinary calcium or phosphorus excretion (Luo et al., 1997). EM-800 decreased the urinary hydroxyproline/creatinine ratio by 48% while, similarly to DHEA, no effect of EM-800 was seen on urinary calcium or phosphorus excretion. EM-800, moreover, had no effect on serum alkaline phosphatase activity, a marker of bone formation while DHEA increased the value of the parameter by about 75% (Luo et al., 1997).

[7] = tested on: ZR-75-1 human breast cancer xenografts; test: Growth and response of human ZR-75-1 breast tumors in OVX nude mice, 7 antiestrogens for 161 days with or without estrone (Example 8); assay type: in vivo
Description: ZR-75-1 human breast cancer cells were obtained from the American Type Culture Collection (Rockville, Md.) and cultured in phenol red-free RPMI-1640 medium. […] (Saint-Constant, Québec, Canada). The mice (5 per cage) were housed in vinyl cages equipped with air filter lids, which were kept in laminar airflow hoods and maintained under pathogen-limiting conditions. The photoperiod was 12 hours of light and 12 hours of darkness (lights on at 07:15). Cages, bedding and food (Agway Pro-Lab R-M-H Diet #4018) were autoclaved before use. Water was autoclaved and provided ad libitum. Bilateral ovariectomy was performed under isoflurane-induced anesthesia. […] Randomization and treatments were started one week later. […] The estrone implants were then removed from the animals in the ovariectomized control group (OVX) and in groups that were to receive the antiestrogen alone. […] Tamoxifen was purchased from […]) while toremifene citrate was purchased from Orion (Espoo, Finland). […] The antiestrogen suspensions at the appropriate concentration were prepared each month, stored at 4° C. and used under constant agitation. Powder stock were hermetically stored at 4° C. […] Two perpendicular diameters were recorded and tumor area (mm2) was calculated using the formula: […] Tumor response was assessed at the end of the study or at death of each animal, if it occurred during the course of the experiment. In this case, only data of mice that survived for at least half of the study ([…]) were used in the tumor response analysis.

[8] = Endometrial epithelium thickness in OVX nude mice after 161 days of antiestrogen (Example 8); assay type: in vivo
Excerpt: The 17 groups included two control groups (OVX and OVX+Estrone), seven groups supplemented with an estrone implant and treated with an antiestrogen and eight other groups that received an antiestrogen alone. The estrone implants were then removed from the animals in the ovariectomized control group (OVX) and in groups that were to receive the antiestrogen alone. […] Tamoxifen was purchased from […]) while toremifene citrate was purchased from Orion (Espoo, Finland). […] The antiestrogen suspensions at the appropriate concentration were prepared each month, stored at 4° C. and used under constant agitation. Powder stock were hermetically stored at 4° C. […] After 161 days of treatment, the remaining animals were anesthetized with isoflurane and killed by exsanguination. […] The uteri were prepared to evaluate endometrial thickness by image analysis performed with Image Pro-Plus (Media Cybernetics, Maryland, USA). […] Hematoxylin- and eosin-stained sections of mice uteri were analyzed. […] Mean epithelial cell height was measured in all animals of each group.

[9] = tested on: ZR-75-1 human breast cancer xenografts; test: Tamoxifen and EM-652.HCl alone or combined on growth of ZR-75-1 xenografts in nude mice (FIG. 7); assay type: in vivo; details: ZR-75-1 xenografts in nude mice
[10] = EM-800 15 μg, or EM-800 15 μg + DHEA 0.3 mg
[11] = EM-800 50 μg, or EM-800 15 μg + DHEA 1.0 mg
[12] = EM-800 100 μg, or EM-800 15 μg + DHEA 3.0 mg
[13] = DHEA 0.3 mg, EM-800 15 μg, or EM-800 15 μg + DHEA 0.3 mg
[14] = DHEA 1.0 mg, EM-800 50 μg, or EM-800 15 μg + DHEA 1.0 mg
[15] = DHEA 3.0 mg, EM-800 100 μg, or EM-800 15 μg + DHEA 3.0 mg
[16] = DHEA 10 mg, EM-800 75 μg, alone or combined
[17] = absence of estrone, 200 μg daily, 161 days
[18] = estrone-supplemented, 50 μg daily, 161 days

## CC1=C(c2ccc(O)cc2)[C@H](c2ccc(OCCN3CCCCC3)cc2)Oc2cc(O)ccc21 [EM-652]
[1]
  accessibility to the CNS: very poor accessibility

## CC1=C(c2ccc(OC(=O)C(C)(C)C)cc2)[C@H](c2ccc(OCCN3CCCCC3)cc2)Oc2cc(OC(=O)C(C)(C)C)ccc21 [EM-800, (+)-7-pivaloyloxy-3-(4′-pivaloyloxyphenyl)-4-methyl-2-(4″-(2′″-piperidi-noethoxy)phenyl)-2H-benzopyran]
[2]
  reversal of the stimulatory effect of DHEA on serum alkaline phosphatase: no significant effect
[3]; [10]
  UTERINE WEIGHT: 49 ± 3 mg
  VAGINAL WEIGHT: 23 ± 1 mg
[3]; [11]
  UTERINE WEIGHT: 36 ± 2 mg
  VAGINAL WEIGHT: 15 ± 1 mg
[3]; [12]
  UTERINE WEIGHT: 32 ± 1 mg
  VAGINAL WEIGHT: 11 ± 1 mg
[4]; EM-800 0.5 mg/kg orally daily
  elevation of circulating 17β-estradiol versus intact animals: 50%
[4]; EM-800 0.5 mg/kg
  effect on the endometrium (histology): marked atrophy
  effect on the mammary gland (histology): marked atrophy
[4]; intact rats, EM-800 0.5 mg/kg orally daily
  circulating levels of 17β-estradiol: 143.5 ± 7.8 pg/mL
[5]; daily DHEA 0.3 mg or EM-800 15 μg
  Inhibition of estrone-stimulated ZR-75-1 tumor size: 88% and 87.5%
[5]; daily DHEA 1.0 mg or EM-800 50 μg
  Inhibition of estrone-stimulated ZR-75-1 tumor size: 93% and 93.5%
[5]; daily DHEA 3.0 mg or EM-800 100 μg
  Inhibition of estrone-stimulated ZR-75-1 tumor size: 94%
[5]; [13]
  Category of response: Complete (%): 29.4%
  Category of response: Complete (Number): 5
  Category of response: Partial (%): 5.9%
  Category of response: Partial (Number): 1
  Category of response: Progression (%): 35.3%
  Category of response: Progression (Number): 6
  Category of response: Stable (%): 29.4%
  Category of response: Stable (Number): 5
[5]; [14]
  Category of response: Complete (%): 25.0%
  Category of response: Complete (Number): 4
  Category of response: Partial (%): 18.8%
  Category of response: Partial (Number): 3
  Category of response: Progression (%): 25.0%
  Category of response: Progression (Number): 4
  Category of response: Stable (%): 31.2%
  Category of response: Stable (Number): 5
[5]; [15]
  Category of response: Complete (%): 50.0%
  Category of response: Complete (Number): 8
  Category of response: Partial (%): 0 (0) %
  Category of response: Partial (Number): 0 (0)
  Category of response: Progression (%): 31.2%
  Category of response: Progression (Number): 5
  Category of response: Stable (%): 18.8%
  Category of response: Stable (Number): 3
[5]; daily DHEA 0.3 mg, EM-800 15 μg, or EM-800 15 μg + DHEA 0.3 mg
  Average tumor weight at end of experiment: 0.08 ± 0.03 g
[5]; daily DHEA 1.0 mg, EM-800 50 μg, or EM-800 15 μg + DHEA 1.0 mg
  Average tumor weight at end of experiment: 0.03 ± 0.01 g
[5]; daily DHEA 3.0 mg, EM-800 100 μg, or EM-800 15 μg + DHEA 3.0 mg
  Average tumor weight at end of experiment: 0.04 ± 0.03 g
[6]
  decrease of urinary hydroxyproline/creatinine ratio (marker of bone resorption): 48%
  effect on daily urinary calcium or phosphorus excretion: no effect
  increase of serum alkaline phosphatase activity (marker of bone formation): no effect
[6]; [16]
  Serum tALP: 114.11 ± 11.26 IU/L
  Urine HP/Cr: 6.81 ± 0.84 μmol/mmol
  Urine calcium: 17.44 ± 4.5 μmol/24 h/100 g
  Urine phosphorus: 102.03 ± 25.13 μmol/24 h/100 g

## CC/C(=C(\c1ccccc1)c1ccc(OCCN(C)C)cc1)c1ccccc1 [Tamoxifen, (Z)-2-[4-(1,2-diphenyl-1-butenyl)phenoxy]-N,N-dimethylethanamine]
[7]; [17]
  increase of average tumor size over baseline (agonistic effect): 196%
  tumors in the progression category, %: 62%
  tumors in the progression category, number of total: 16 of 26
[7]; estrone-stimulated, 50 μg oral daily, 23 weeks
  average tumor size above pretreatment values: 87%
[7]; [18]
  progressing tumors, % of tumors: 65%
  progressing tumors, number of total: 17 of 26
[8]; 50 μg daily oral, estrone stimulation
  inhibition of the stimulatory effect of estrone on epithelial height: 32%
[8]; 200 μg daily, absence of estrone
  height of uterine epithelial cells, % of the OVX control group value: 155%
[8]; OVX + E1, antiestrogen 50 μg daily
  ENDOMETRIAL EPITHELIUM THICKNESS (μm) ± SEM: 33.44^b,d ± 0.04 μm
[8]; OVX without E1, antiestrogen 200 μg daily
  ENDOMETRIAL EPITHELIUM THICKNESS (μm) ± SEM: 28.47^b,d ± 0.05 μm
[9]
  stimulatory effect on tumor growth: approximately 100%
